Assay [1] can be described thus: Growth inhibition of human MDA-MB-231 cells at 30 uM after 72 hrs by MTT assay. It counts as functional. The note with it: MDA-MB-231, 72 h, read-out: GI.
Assay [2] can be described thus: Growth inhibition of human MCF7 cells at 30 uM after 72 hrs by MTT assay. The assay is classed as functional. To be noted: MCF7, 72 h, read-out: GI. For orientation: Formazan colour is commonly taken as a measure of viable cells.
The nature of assay [3]: Growth inhibition of human MDA-MB-361 cells at 10 uM after 72 hrs by MTT assay. The note with it: MDA-MB-361, 72 h, read-out: GI. It counts as functional.
The nature of assay [4]: Growth inhibition of human MDA-MB-231 cells at 10 uM after 72 hrs by MTT assay. It counts as functional. The note with it: MDA-MB-231, 72 h, read-out: GI.
Assay [5] in a line: Growth inhibition of human T47D cells at 30 uM after 72 hrs by MTT assay. The assay is classed as functional. To be noted: read-out: GI.
The nature of assay [6]: Growth inhibition of human MDA-MB-361 cells at 30 uM after 72 hrs by MTT assay. To be noted: MDA-MB-361, 72 h, read-out: GI. The assay is classed as functional.
The nature of assay [7]: Growth inhibition of human MDA-MB-361 cells after 72 hrs by MTT assay. The assay is classed as functional, cell-based. To be noted: MDA-MB-361, 72 h.
The nature of assay [8]: Growth inhibition of human MCF7 cells at 10 uM after 72 hrs by MTT assay. The note with it: MCF7, 72 h, read-out: GI. The assay is classed as functional.
Assay [9] is described as follows: Growth inhibition of human MCF7 cells after 72 hrs by MTT assay. The assay is classed as functional, cell-based. To be noted: MCF7, 72 h.
A short description of assay [10]: Growth inhibition of human T47D cells at 10 uM after 72 hrs by MTT assay. The assay is classed as functional. To be noted: read-out: GI.
The nature of assay [11]: Growth inhibition of human MDA-MB-231 cells after 72 hrs by MTT assay. The assay is classed as functional, cell-based. The note with it: MDA-MB-231, 72 h.
Assay [12] in a line: Growth inhibition of human T47D cells after 72 hrs by MTT assay. It counts as functional, cell-based.
The target in assay [13] is T1, Steroid 17-alpha-hydroxylase/17,20 lyase (Rattus norvegicus, UniProt P11715).
T1 sequence (P11715 whole entry): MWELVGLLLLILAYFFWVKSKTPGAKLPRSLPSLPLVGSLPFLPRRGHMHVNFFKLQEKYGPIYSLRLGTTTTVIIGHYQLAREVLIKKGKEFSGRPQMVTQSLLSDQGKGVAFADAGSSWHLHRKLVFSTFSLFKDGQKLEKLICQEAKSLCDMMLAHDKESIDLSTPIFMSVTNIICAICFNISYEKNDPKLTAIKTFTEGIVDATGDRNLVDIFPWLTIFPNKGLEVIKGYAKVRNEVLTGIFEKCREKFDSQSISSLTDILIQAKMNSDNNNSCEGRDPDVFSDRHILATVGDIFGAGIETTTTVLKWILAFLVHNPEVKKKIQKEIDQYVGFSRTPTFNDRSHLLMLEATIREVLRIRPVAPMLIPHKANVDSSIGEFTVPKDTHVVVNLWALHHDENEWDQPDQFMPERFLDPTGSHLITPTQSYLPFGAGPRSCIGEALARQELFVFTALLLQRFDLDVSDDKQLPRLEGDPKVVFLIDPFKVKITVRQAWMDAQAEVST
As to the kind of experiment: Inhibition of Wistar rat testicular C17,20-lyase assessed as androst-4-ene-3,17-dione formation using [3H]17-hydroxyprogesterone as substrate in presence of NADPH.

As to `COc1ccc(-n2cc(C=O)c(C3=CC[C@H]4[C@@H]5CC=C6C[C@@H](O)CC[C@]6(C)[C@H]5CC[C@]34C)n2)cc1`, the inhibition of growth at 30 µM in [1] stood at 96.2%; in assay [2] it was 98.1%; in assay [5] it was 96.7%; in [6] it was 96.2%. Also, the inhibition of growth at 10 µM in assay [3] worked out at 89.6%; in assay [4] it was 96.1%; in [8], 92.3%; in [10], 92.5%. Further, the IC50 was 3.3 µM in [7], 3.8 µM in assay [9], 3.6 µM in assay [11] and 3.7 µM in assay [12].
In the case of `C[C@]12CC[C@H](O)CC1=CC[C@@H]1[C@@H]2CC[C@]2(C)C(c3n[nH]cc3C#N)=CC[C@@H]12`, the inhibition of growth at 30 µM is 88.4% in assay [1], 63.4% in assay [2], 75.7% in assay [5] and 80.4% in assay [6]. Also, the inhibition of growth at 10 µM was 46.6% in [3], 23.3% in [4], 36.6% in assay [8] and 46.8% in assay [10]. In [13], the IC50 came out at 0.092 µM.
For `C[C@]12CC[C@H](O)CC1=CC[C@@H]1[C@@H]2CC[C@]2(C)C(c3n[nH]cc3C=O)=CC[C@@H]12`, the inhibition of growth at 30 µM in [1] came to 93.7%; in assay [2] it was 80.8%; in assay [5], 77%; in assay [6], 79.7%. In addition, the inhibition of growth at 10 µM was determined as 42.6% in assay [3], 54.3% in assay [4], 31.4% in [8] and 43.2% in assay [10]. In addition, in assay [13], the IC50 is 0.066 µM.
Regarding `C[C@]12CC[C@H](O)CC1=CC[C@@H]1[C@@H]2CC[C@]2(C)C(c3nn(-c4ccc(Cl)cc4)cc3CO)=CC[C@@H]12`, the inhibition of growth at 30 µM in [1] was 97.8%; in [2], 90.9%; in assay [5], 94.8%; in [6], 93.1%. The inhibition of growth at 10 µM in assay [3] came out at 80%; in assay [4], 93.2%; in [8], 54.3%; in assay [10], 81%. The 50% inhibitory concentration (IC50) in assay [7] came out at 2.5 µM; in [11], 3.6 µM; in assay [12], 5.7 µM.
For the molecule `C[C@]12CC[C@H](O)CC1=CC[C@@H]1[C@@H]2CC[C@]2(C)C(c3nn(-c4ccc(Br)cc4)cc3CO)=CC[C@@H]12`, the inhibition of growth at 30 µM in assay [1] was determined as 88.2%; in [2], 86.9%; in assay [5] it was 85.9%; in [6], 91.5%. Further, the inhibition of growth at 10 µM in assay [3] is 83.5%; in [4], 76.8%; in assay [8], 65.9%; in assay [10] it was 68.2%. Further, the results for the IC50 in assay [7] and in assay [11] were 2 µM and 4 µM, respectively.
Take `C[C@]12CC[C@H](O)CC1=CC[C@@H]1[C@@H]2CC[C@]2(C)C(c3nn(-c4ccccc4)cc3CO)=CC[C@@H]12`: the inhibition of growth at 30 µM in assay [1] was 93.2%; in [2] it was 89.8%; in assay [5], 90.6%; in assay [6], 96.1%. The inhibition of growth at 10 µM in assay [3] turned out to be 90.6%; in assay [4] it was 85.2%; in assay [8], 79.2%; in assay [10], 74.4%. Moreover, the IC50 in assay [7] is 2.1 µM; in [9], 3.4 µM; in assay [11], 5.2 µM.
With `C[C@]12CC[C@H](O)CC1=CC[C@@H]1[C@@H]2CC[C@]2(C)C(c3nn(-c4ccc([N+](=O)[O-])cc4)cc3CO)=CC[C@@H]12`, the inhibition of growth at 30 µM is 92.7% in [1], 87.6% in [2], 84.7% in assay [5] and 91.9% in assay [6]. Also, the inhibition of growth at 10 µM turned out to be 82.2% in [3], 78.1% in assay [4], 65.4% in assay [8] and 73.2% in [10]. The IC50 in assay [7] was determined as 2.7 µM; in [11], 4.3 µM.
Turning to `C[C@]12CC[C@H](O)CC1=CC[C@@H]1[C@@H]2CC[C@]2(C)C(c3ccn[nH]3)=CC[C@@H]12`, the half-inhibitory concentration (IC50) in assay [13] worked out at 0.0077 µM.
In the case of `Cn1cc(C#N)c(C2=CC[C@H]3[C@@H]4CC=C5C[C@@H](O)CC[C@]5(C)[C@H]4CC[C@]23C)n1`, the inhibition of growth at 30 µM amounted to 32.6% in assay [1], 40.9% in [2], 29.6% in assay [5] and 32.5% in assay [6]. Besides, the inhibition of growth at 10 µM in assay [3], in assay [4], in [8] and in assay [10] was below 20% in each case.
With `C[C@]12CC[C@H](O)CC1=CC[C@@H]1[C@@H]2CC[C@]2(C)C(c3nn(-c4ccc(C#N)cc4)cc3CO)=CC[C@@H]12`, the inhibition of growth at 30 µM in assay [1] is 96.4%; in [2], 88.4%; in assay [5] it was 94.5%; in assay [6] it was 91.9%. The inhibition of growth at 10 µM in assay [3] amounted to 86.5%; in assay [4] it was 95.9%; in assay [8], 71.6%; in assay [10], 89.6%. The IC50 in assay [7] came to 1.6 µM; in assay [9] it was 1.4 µM; in [11], 1.8 µM; in assay [12] it was 1.2 µM.
Consider `Cn1cc(C=O)c(C2=CC[C@H]3[C@@H]4CC=C5C[C@@H](O)CC[C@]5(C)[C@H]4CC[C@]23C)n1`, for which the inhibition of growth at 30 µM in [1] stood at 93.4%; in assay [2], 48.6%; in [5], 70.4%; in [6] it was 70%. The inhibition of growth at 10 µM in assay [3] came to 62.1%; in [4], 86.8%; in assay [8], 42.2%; in assay [10], 62%.
As to `C[C@]12CC[C@H](O)CC1=CC[C@@H]1[C@@H]2CC[C@]2(C)C(c3nn(-c4ccccc4)cc3C=O)=CC[C@@H]12`, the inhibition of growth at 30 µM in assay [1] was found to be 96.3%; in [2], 98.1%; in [5], 96.9%; in assay [6] it was 95.8%. Moreover, the inhibition of growth at 10 µM amounted to 88.6% in assay [3], 93.5% in assay [4], 93.4% in assay [8] and 93.2% in assay [10]. Also, the half-maximal inhibitory concentration (IC50) in assay [7] worked out at 3.8 µM; in [9], 3.7 µM; in assay [11], 5.4 µM; in assay [12] it was 3.9 µM.
Turning to `C[C@]12CC[C@H](O)CC1=CC[C@@H]1[C@@H]2CC[C@]2(C)C(c3cccnc3)=CC[C@@H]12` [ABIRATERONE], the inhibition of growth at 30 µM in assay [1] was 85%; in assay [2], 74.7%; in assay [5], 70.8%; in [6] it was 61.2%. In addition, the inhibition of growth at 10 µM in assay [3] came to 32.2%; in [4], 14.3%; in assay [8] it was 12.4%; in assay [10], 32.5%. The IC50 in [7] came to 20.4 µM; in assay [9] it was 19.3 µM; in [11], 19.2 µM; in assay [12], 16.9 µM.
`CC(=O)O[C@H]1CC[C@@]2(C)C(=CC[C@@H]3[C@@H]2CC[C@]2(C)C(c4nn(-c5ccc([N+](=O)[O-])cc5)cc4C=O)=CC[C@@H]32)C1`: the inhibition of growth at 30 µM in [1] stood at 22.7%; in assay [2], 51.9%; in assay [5], 62.8%; in [6] it was 56.2%. For the same molecule, the inhibition of growth at 10 µM in [3], in assay [4], in assay [8] and in assay [10] was below 20% each time.

Broadly, the IC50 is the concentration that gives 50% inhibition.

The record behind these values is ChEMBL document CHEMBL3856198, “Synthesis of novel 17-(4'-formyl)pyrazolylandrosta-5,16-dienes and their derivatives as potent 17α-hydroxylase/C17,20-lyase inhibitors or antiproliferative agents depending on the substitution pattern of the heteroring” (Eur J Med Chem, 2016).
